Reference: ChEMBL document CHEMBL1141004, “N-((8-hydroxy-5-substituted-quinolin-7-yl)(phenyl)methyl)-2-phenyloxy/amino-acetamide inhibitors of ADAMTS-5 (Aggrecanase-2)” (Bioorg Med Chem Lett, 2008)

Experiments:
[1] = Metabolic stability in rat liver microsomes assessed as half life; type: ADME, Microsome
[2] = target: T1, A disintegrin and metalloproteinase with thrombospondin motifs 5 (Homo sapiens, UniProt Q9UNA0); test: Inhibition of ADAMTS5 by FRET assay
T1 sequence (Q9UNA0 whole entry): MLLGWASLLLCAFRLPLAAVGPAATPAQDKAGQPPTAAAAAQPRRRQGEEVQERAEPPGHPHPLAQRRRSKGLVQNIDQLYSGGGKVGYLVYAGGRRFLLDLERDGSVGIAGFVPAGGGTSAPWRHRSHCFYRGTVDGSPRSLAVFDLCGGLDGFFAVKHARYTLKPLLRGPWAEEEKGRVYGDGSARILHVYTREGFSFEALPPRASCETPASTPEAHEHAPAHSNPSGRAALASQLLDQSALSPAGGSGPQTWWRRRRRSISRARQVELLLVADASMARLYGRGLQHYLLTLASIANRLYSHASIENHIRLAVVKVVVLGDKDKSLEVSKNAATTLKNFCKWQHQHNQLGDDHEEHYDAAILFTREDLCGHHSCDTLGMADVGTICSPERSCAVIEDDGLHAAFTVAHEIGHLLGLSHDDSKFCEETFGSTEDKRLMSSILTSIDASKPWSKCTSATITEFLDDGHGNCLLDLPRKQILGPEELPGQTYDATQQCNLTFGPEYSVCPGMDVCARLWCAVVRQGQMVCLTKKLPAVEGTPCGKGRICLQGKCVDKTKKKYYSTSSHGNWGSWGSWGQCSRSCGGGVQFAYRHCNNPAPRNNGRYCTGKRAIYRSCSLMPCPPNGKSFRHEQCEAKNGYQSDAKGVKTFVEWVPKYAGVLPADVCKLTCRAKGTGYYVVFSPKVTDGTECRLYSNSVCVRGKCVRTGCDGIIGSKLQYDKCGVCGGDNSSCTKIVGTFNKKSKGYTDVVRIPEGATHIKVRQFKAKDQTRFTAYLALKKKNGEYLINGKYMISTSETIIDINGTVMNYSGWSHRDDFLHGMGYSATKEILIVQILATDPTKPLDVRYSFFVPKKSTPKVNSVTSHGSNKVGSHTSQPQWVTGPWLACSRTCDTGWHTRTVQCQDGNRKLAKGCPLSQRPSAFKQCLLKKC

Cytochrome P450 3A4 = Cytochrome P450 3A4 (Homo sapiens, UniProt P08684); test: Inhibition of CYP3A4 at 30 uM by FRET assay; type: ADME
Chain of Cytochrome P450 3A4 (P08684 whole entry): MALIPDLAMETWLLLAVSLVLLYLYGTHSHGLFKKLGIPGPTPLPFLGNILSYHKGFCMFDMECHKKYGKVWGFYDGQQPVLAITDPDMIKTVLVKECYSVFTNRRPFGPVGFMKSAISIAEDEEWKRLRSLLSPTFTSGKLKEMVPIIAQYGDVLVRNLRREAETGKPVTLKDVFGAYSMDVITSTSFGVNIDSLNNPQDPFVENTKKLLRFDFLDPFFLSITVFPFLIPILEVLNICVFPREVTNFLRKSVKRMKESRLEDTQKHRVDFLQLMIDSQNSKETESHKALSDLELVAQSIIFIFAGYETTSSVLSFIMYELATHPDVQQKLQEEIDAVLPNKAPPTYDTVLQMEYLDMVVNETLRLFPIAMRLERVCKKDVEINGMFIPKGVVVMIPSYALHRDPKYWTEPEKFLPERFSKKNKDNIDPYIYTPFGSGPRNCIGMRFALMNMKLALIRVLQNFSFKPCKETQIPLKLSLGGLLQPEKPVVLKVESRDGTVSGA

half-life [1] [min] | IC50 [2] [µM] | inhibition (INH) (Cytochrome P450 3A4) [%] | SMILES
30 | > 10 | 19 | Cc1cc(OCC(=O)NC(c2cccc([N+](=O)[O-])c2)c2cc(Cl)c3cccnc3c2O)ccc1Cl (stereo unspecified)
9 | > 10 | 25 | COc1ccc(C(NC(=O)COc2ccc(Cl)c(C)c2)c2cc(Cl)c3cccnc3c2O)cc1 (stereo unspecified)
